According to patent publication US6426076B1 (PASCO Pharmazeutische Präparate GmbH, priority 1997, dated 2002):

Assays:
skin metastases = experiment: Case 1: vitamin C infusions in a patient with breast carcinoma, local recurrences and skin metastases; type: in vivo, human; settings: vitamin C infusions of 7.5 g per infusion
[1] = system: metastatic breast cancer and massive bone metastases; experiment: Case 2: vitamin C infusions in a patient with metastatic breast cancer and bone metastases, with concomitant chemotherapy; type: in vivo, human; settings: ten infusions of 7.5 g vitamin C each
[2] = system: normal tissue (skin and bone marrow); experiment: Adjuvant vitamin C infusions with radiation therapy: radiation tolerance of normal tissue; type: in vivo
[3] = Combination therapy of cytostatics with vitamin C: loss of cytostatic effect; settings: any of the cytostatics investigated
From the text: The side effects of chemotherapy are also attributed to an increase in the levels of free radicals in many tissues.

terminal cancer patients = settings: 100 terminal cancer patients, 10 g vitamin C orally each day; cited from earlier work
cancer patients [4] = settings: intravenous 0.5 to 10 g/day, then oral 10 to 30 g, cited from earlier work
tumor cell lines = settings: in certain concentrations; cited from earlier work
normal cell lines = settings: in the concentrations cytotoxic to tumor cell lines; cited from earlier work
cancer patients [5] = settings: high-dose vitamin C therapy, case reports; cited from earlier work
[6] = Animal experiments: combination with adriamycin, survival time
[7] = intravenous infusion of 7.5 g vitamin C before and after each radiation

O=C1O[C@H]([C@@H](O)CO)C(O)=C1O [vitamin C, ascorbic acid]
comparison with local-acting cytostatic administered previously (skin metastases): superior to the local-acting cytostatic administered previously
effect on skin metastases (skin metastases): remission of the skin metastases
pain caused by the bone metastases [1]: great relief from the pain
blood picture (leukocytes and platelets) ([1]; concomitant chemotherapy): definite improvement in the blood picture (stabilization of leukocytes and platelets)
radioprotective effect on bone marrow [2, 7]: greatly improved
skin reactions accompanying radiation [2, 7]: can be prevented
increase of radiation tolerance of normal tissue ([2]; vitamin C infusions, without increasing the radiation dose required to remove the tumors): about 20%
loss of effect of the cytostatics [3]: no loss of effect
survival time versus control group (terminal cancer patients): longer than that of the control group
general well-being and Karnofsky scale (cancer patients [4]): improvement in general well-being and the Karnofsky scale
pain in skeletal metastasis (cancer patients [4]): relief from pain in cases of skeletal metastasis
protein tumor markers in the serum (cancer patients [4]): decline in protein tumor markers in the serum
malignant pleural effusions and pulmonary metastases (cancer patients [4]; in favorable cases): absorption of malignant pleural effusions and a reduction in the size of pulmonary metastases
effect on tumor cell lines (tumor cell lines): cytotoxic effect
growth of normal cell lines (normal cell lines): not influenced
general condition and remissions (cancer patients [5]): improvement in general condition and spontaneous remissions
survival time [6]: prolonged survival time
